From patent US7112698B2, “4-(c2-6alkoxy)-substituted chalcones as therapeutic agents” (Spear Therapeutics Limited, priority 2001, dated 2006)

How the values were obtained:
MCF-7 cells = assay: MCF-7 cell line (non-induced) cytotoxicity assay, MTT; format: cell-based; conditions: Homo sapiens, MCF7; non-induced MCF-7 cells, 96 hours, MTT; read-out: MCF-7 Cells IC50
Source text: (§1) CYP1A1 and CYP1B1 enzyme activity is induced by TCDD (tetrachlorodibenzodioxin (Dioxin)) in breast tumour MCF-7 cells (see, e.g., Sutter et al., 1994). CYP1B1 is expressed in a variety of human tumours, and can be inducible by TCDD in numerous cell types including breast, liver, lung, and kidney (see, e.g., Murray et al., 1997). CYP1B1 is known to catalyse estradiol 4-hydroxylation metabolism. In untreated culture, the constitutive rate of estradiol E2 metabolism in MCF-7 cells is minimal. However, treatment with TCDD causes a marked increase in the rate of E2 metabolism (see, e.g., Spink et al., 1994). […] Therefore the cytotoxicity of compounds in non-induced MCF-7 cells correlates to the cytotoxicity of compounds against normal cells, whilst the cytotoxicity of compounds against TCDD-induced MCF-7 cells correlates to the cytotoxicity of compounds against real tumours that express CYP1B1.
(§2) The cytotoxicity of compounds in non-induced MCF-7 cells correlates to the cytotoxicity of compounds against normal cells, whilst the cytotoxicity of compounds against TCDD-induced MCF-7 cells correlates to the cytotoxicity of compounds against real tumours that express CYP1B1.
(§3) Cells were maintained in RPMI 1640 with Glutamax 1 (Life Technologies) with 10% (v/v) heat inactivated foetal calf serum (Hybrimax. Sigma), at 37° C., 5% CO2/95% air with 100% humidity and passaged using trypsin/EDTA. 1×10^3 cells were plated out in 100 μl medium per well of 96-well flat-bottomed plates (Fisher). After 4 hours to allow adherance, 100 μl of medium containing TCDD (British Greyhound Chromatography; 10 μM stock in DMSO (dimethylsulfoxide)) or medium with 0.2% (v/v) DMSO as control was added to each well to give a final concentration of 10 nM TCDD, 0.1% (v/v) DMSO, for 24 hours to allow maximal CYP expression. The medium was then carefully aspirated and 100 μl fresh medium added. Within 30 minutes test compound was added in quadruplicate in 100 μl medium (with or without inhibitors) at double the final concentration from 100 mM stock in DMSO to give a final concentration of not more than 0.1% (v/v) DMSO, or DMSO solvent alone at 0.1% (v/v) as control. The cells were then allowed to grow on for 96 hours to give 80–90% confluence in the control wells. 50 μl MTT (Thiazol blue, Sigma) at 2 mg/ml in Dulbecco's phosphate buffered saline-A, was then added to each well for 3 hours. All medium was aspirated, then the formazan product generated by viable cells was solubilized with 150 μl DMSO. Plates were vortexed and the absorbance at 540 nm determined using a plate reader. Results were expressed as the percentage of 100% (control) proliferation and the IC50 calculated using the line of best fit for a sigmoidal dose response curve with variable slope using Graphpad Prizm software. All determinations were carried out in at least triplicate.

TCDD-induced MCF-7 cells = assay: TCDD-induced MCF-7 cell line cytotoxicity assay, MTT; format: cell-based, human; conditions: for IC50: 96 hours, MTT
Source text: as §1, §2
as §3, with “triplicate. […]” for “triplicate.”

[1] = system: MDA-468 advanced breast cancer cell line; assay: MDA-468 tumour cell line cytotoxicity assay; format: cell-based, human
Procedure: (§4) Cells were maintained in RPMI 1640 with Glutamax 1 (Life Technologies) with 10% (v/v) heat inactivated foetal calf serum (Hybrimax. Sigma), at 37° C., 5% CO2/95% air with 100% humidity and passaged using trypsin/EDTA. 1×10^3 cells were plated out in 100 μl medium per well of 96-well flat-bottomed plates (Fisher). […] The medium was then carefully aspirated and 100 μl fresh medium added. […] 50 μl MTT (Thiazol blue, Sigma) at 2 mg/ml in Dulbecco's phosphate buffered saline-A, was then added to each well for 3 hours. All medium was aspirated, then the formazan product generated by viable cells was solubilized with 150 μl DMSO. Plates were vortexed and the absorbance at 540 nm determined using a plate reader. […] All determinations were carried out in at least triplicate.
(§5) This cell culture based assay is performed using the two cell lines MDA-468 and MCF-10A. The MDA468 cell line is an advanced breast cancer cell line, whilst the MCF-10A cell line is a normal breast cell line.
(§6) This assay was performed using the two cell lines MDA-468 and MCF-10A according to the procedure described above for the MCF-7 assay, but without the addition of TCDD.
(§7) The tumour selectivity differential factor (TSDF) is calculated by dividing the IC50 obtained from the MCF-10A data by the IC50 obtained from the MDA-468 data.

[2] = system: MCF-10A normal breast cell line; assay: MCF-10A normal cell line cytotoxicity assay; format: cell-based; conditions: Homo sapiens, without TCDD
Procedure: as §4, §5, §6, §7

[3] = system: K562 human leukemia cell line; conditions: background, antitumour activity; cited from earlier work

Row | SMILES | IC50 (MCF-7 cells) | increase in the cytotoxic activity by the induction of CYP1B1 (TCDD-induced MCF-7 cells; FIG. 1, un-induced versus TCDD-induced MCF-7 cells) | IC50 (TCDD-induced MCF-7 cells; Homo sapiens, MCF7, MCF-7 cells induced with 10 nM TCDD for 24 hours) | Tumour Selectivity Differential Factor (TCDD-induced MCF-7 cells; MCF-7 IC50 versus TCDD-induced MCF-7 IC50 (Table 1)) | IC50 (TCDD-induced MCF-7 cells; MCF-7 cells induced with 10 nM TCDD for 24 hours) | more toxic to “tumour” cells than to “normal” cells (TCDD-induced MCF-7 cells; TCDD-induced MCF-7 versus MCF-7) | IC50 ([1]; Homo sapiens, without TCDD) | Tumour Selectivity Differential Factor ([1]; IC50 MCF-10A divided by IC50 MDA-468 (Table 2)) | more toxic to cancer cells than to normal cells (tumour selectivity) ([1]; MDA-468 versus MCF-10A) | IC50 [2] | IC50 [3]
1 | CCCOc1ccc(/C=C/C(=O)c2cc(OC)cc(OC)c2)cc1 [DMU-175, (E)-1-(4-propoxyphenyl)-3-(3,5-dimethoxyphenyl)prop-1-en-3-one] | 15 µM | 28 fold | 0.54 µM | 30 | 0.5 µM | 30 fold | 1.4 µM | 11 | 11 fold | 16 µM | 
2 | CC(=O)/C=C/c1ccc(O)cc1 [(E)-1-(4′-hydroxyphenyl)but-1-en-3-one] |  |  |  |  |  |  |  |  |  |  | 60 µM
